Data reported in PMC11003488 (Journal of Enzyme Inhibition and Medicinal Chemistry, 2023).

Key:
[1] = tested on: NCI 60-cell line panel (full panel); experiment: NCI-60 SRB growth inhibition, full panel mean / MG-MID; format: cell-based, human; details: for GI50: Homo sapiens, 60 cell, read-out: Full panel GI50 mean; for Full panel Mean GI %: mean over NCI-60 panel, single dose 10 µM
Renal cancer cell lines = experiment: NCI-60 SRB growth inhibition, subpanel; format: cell-based, human; details: Homo sapiens, read-out: GI50 MG-MID
UACC-257 = experiment: NCI-60 SRB growth inhibition, one-dose and five-dose; format: cell-based; details: Homo sapiens; for GI50: UACC-257; for inhibition at 10 µM: UACC-257, read-out: percent growth inhibition
SF-295 = experiment: as above; format: cell-based; details: Homo sapiens; for GI50: SF-295; for inhibition at 10 µM: SF-295, read-out: percent growth inhibition
SF-539 = experiment: as above; format: cell-based; details: Homo sapiens; for GI50: SF-539; for inhibition at 10 µM: SF-539, read-out: percent growth inhibition
[2] = tested on: Prostate cancer cell lines; experiment: NCI-60 SRB growth inhibition, subpanel; format: cell-based, human; details: Homo sapiens, read-out: GI50 MG-MID
OVCAR-3 = experiment: NCI-60 SRB growth inhibition, one-dose and five-dose; format: cell-based; details: Homo sapiens; for GI50: OVCAR-3; for inhibition at 10 µM: OVCAR-3, read-out: percent growth inhibition
COLO 205 = experiment: as above; format: cell-based; details: Homo sapiens; for GI50: COLO 205; for inhibition at 10 µM: COLO 205, read-out: percent growth inhibition
MOLT-4 = experiment: as above; format: cell-based; details: Homo sapiens; for GI50: MOLT-4; for inhibition at 10 µM: MOLT-4, read-out: percent growth inhibition
[3] = tested on: WI-38 normal human fibroblast cells; experiment: Cytotoxicity towards normal fibroblasts, safety index; format: cell-based; details: WI-38 versus cancer cell lines
[4] = as above; format: cell-based, human; details: human, WI-38 normal fibroblast cells
HCT-15 = experiment: NCI-60 SRB growth inhibition, one-dose and five-dose; format: cell-based; details: Homo sapiens; for GI50: HCT-15; for inhibition at 10 µM: HCT-15, read-out: percent growth inhibition
MDA-MB-231/ATCC = experiment: as above; format: cell-based; details: Homo sapiens; for GI50: MDA-MB-231
[5] = tested on: Ovarian cancer cell lines; experiment: NCI-60 SRB growth inhibition, subpanel; format: cell-based, human; details: Homo sapiens, read-out: GI50 MG-MID
CNS cancer cell lines = experiment: NCI-60 SRB growth inhibition, subpanel; format: cell-based, human; details: Homo sapiens, read-out: GI50 MG-MID
Leukaemia cell lines = experiment: NCI-60 SRB growth inhibition, subpanel; format: cell-based, human; details: Homo sapiens, read-out: GI50 MG-MID
Breast cancer cell lines = experiment: NCI-60 SRB growth inhibition, subpanel; format: cell-based, human; details: Homo sapiens, read-out: GI50 MG-MID
Melanoma cell lines = experiment: NCI-60 SRB growth inhibition, subpanel; format: cell-based, human; details: Homo sapiens, read-out: GI50 MG-MID
OVCAR-5 = experiment: NCI-60 SRB growth inhibition, one-dose and five-dose; format: cell-based; details: Homo sapiens; for GI50: OVCAR-5; for inhibition at 10 µM: OVCAR-5, read-out: percent growth inhibition
Human VEGFR-2 = Human VEGFR-2 (Homo sapiens, UniProt P35968); experiment: VEGFR-2 inhibition assay; format: biochemical
Chain of Human VEGFR-2 (P35968 20-1356): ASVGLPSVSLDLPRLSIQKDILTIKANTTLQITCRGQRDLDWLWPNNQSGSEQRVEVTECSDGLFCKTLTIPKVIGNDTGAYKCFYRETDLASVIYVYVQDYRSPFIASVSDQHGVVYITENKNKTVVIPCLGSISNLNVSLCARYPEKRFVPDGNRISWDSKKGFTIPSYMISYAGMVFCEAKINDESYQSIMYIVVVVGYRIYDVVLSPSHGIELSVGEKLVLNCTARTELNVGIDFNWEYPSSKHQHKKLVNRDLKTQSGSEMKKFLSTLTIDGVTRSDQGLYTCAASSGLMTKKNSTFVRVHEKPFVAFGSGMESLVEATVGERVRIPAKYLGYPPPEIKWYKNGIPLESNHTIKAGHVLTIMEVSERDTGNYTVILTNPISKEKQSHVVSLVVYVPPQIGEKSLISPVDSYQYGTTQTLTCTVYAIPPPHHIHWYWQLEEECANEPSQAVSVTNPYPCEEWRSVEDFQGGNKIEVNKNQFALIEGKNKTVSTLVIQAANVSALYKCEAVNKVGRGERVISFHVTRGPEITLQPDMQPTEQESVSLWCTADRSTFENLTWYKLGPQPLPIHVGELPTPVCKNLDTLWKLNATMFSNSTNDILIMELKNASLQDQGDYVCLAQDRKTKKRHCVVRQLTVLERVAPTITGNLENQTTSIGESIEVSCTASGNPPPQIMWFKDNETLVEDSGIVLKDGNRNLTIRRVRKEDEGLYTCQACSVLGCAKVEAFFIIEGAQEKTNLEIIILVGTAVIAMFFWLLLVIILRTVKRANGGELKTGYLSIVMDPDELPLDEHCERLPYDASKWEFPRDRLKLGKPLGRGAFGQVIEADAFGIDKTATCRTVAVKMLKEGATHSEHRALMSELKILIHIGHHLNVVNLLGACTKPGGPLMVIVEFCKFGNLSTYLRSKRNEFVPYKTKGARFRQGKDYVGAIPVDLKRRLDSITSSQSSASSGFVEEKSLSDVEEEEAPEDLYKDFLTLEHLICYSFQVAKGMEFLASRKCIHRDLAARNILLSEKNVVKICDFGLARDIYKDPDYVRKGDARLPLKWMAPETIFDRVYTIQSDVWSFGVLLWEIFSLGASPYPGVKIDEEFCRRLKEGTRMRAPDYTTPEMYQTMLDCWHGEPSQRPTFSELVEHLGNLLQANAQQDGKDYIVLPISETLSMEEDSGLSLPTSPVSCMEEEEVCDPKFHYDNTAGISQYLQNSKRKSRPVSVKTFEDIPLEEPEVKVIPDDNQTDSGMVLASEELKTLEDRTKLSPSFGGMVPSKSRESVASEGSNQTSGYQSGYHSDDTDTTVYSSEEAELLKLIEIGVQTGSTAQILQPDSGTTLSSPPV

HCT-116 = experiment: NCI-60 SRB growth inhibition, one-dose and five-dose; format: cell-based; details: Homo sapiens; for GI50: HCT-116, HCT-116, five-dose screening; for inhibition at 10 µM: HCT-116, read-out: percent growth inhibition
HL-60(TB) = experiment: cells; format: cell-based; details: Homo sapiens; for GI50: HL-60; for inhibition at 10 µM: HL-60, read-out: percent growth inhibition
IGROV1 = experiment: NCI-60 SRB growth inhibition, one-dose and five-dose; format: cell-based; details: Homo sapiens; for GI50: IGROV-1; for inhibition at 10 µM: IGROV-1, read-out: percent growth inhibition
NSCLC cell lines = experiment: NCI-60 SRB growth inhibition, subpanel; format: cell-based, human; details: Homo sapiens, read-out: GI50 MG-MID
Colon cancer cell lines = experiment: NCI-60 SRB growth inhibition, subpanel; format: cell-based, human; details: Homo sapiens, read-out: GI50 MG-MID
UO-31 = experiment: NCI-60 SRB growth inhibition, one-dose and five-dose; format: cell-based; details: Homo sapiens; for GI50: UO-31
SNB-19 = experiment: as above; format: cell-based; details: Homo sapiens; for GI50: SNB-19; for inhibition at 10 µM: SNB-19, read-out: percent growth inhibition
OVCAR-4 = experiment: as above; format: cell-based; details: Homo sapiens; for GI50: OVCAR-4; for inhibition at 10 µM: OVCAR-4, read-out: percent growth inhibition
RXF 393 = experiment: as above; format: cell-based; details: Homo sapiens; for GI50: RXF 393; for inhibition at 10 µM: RXF 393, read-out: percent growth inhibition
HS 578 T = experiment: as above; format: cell-based; details: Homo sapiens; for inhibition at 10 µM: read-out: percent growth inhibition

**Q.** What does the source list for CC(=O)Nc1ccc(/C=C/C(=O)c2cccc(NCc3ccc(C)cc3)c2)cc1 [Compound 5f, (E)-N-(4–(3-(3-((4-methylbenzyl)amino)phenyl)-3-oxoprop-1-en-1-yl)phenyl)acetamide]?
**A.** GI50 [1]: 9.25 µM; Full panel Mean GI % [1]: 61.75%; GI50 (Renal cancer cell lines): 11.4 µM; GI50 (UACC-257): 14.2 µM; inhibition at 10 µM (UACC-257): 15.7%; GI50 (SF-295): 15.7 µM; inhibition at 10 µM (SF-295): 27.7%; GI50 (SF-539): 9.33 µM; inhibition at 10 µM (SF-539): 153%; GI50 [2]: 10.1 µM; GI50 (OVCAR-3): 3.19 µM; inhibition at 10 µM (OVCAR-3): 78%; GI50 (COLO 205): 16 µM; inhibition at 10 µM (COLO 205): 53.7%; GI50 (MOLT-4): 2.69 µM; inhibition at 10 µM (MOLT-4): 62%; Safety index [3]: >1; GI50 at 48 h [4]: > 100 µM; GI50 (HCT-15): 3.31 µM; inhibition at 10 µM (HCT-15): 113%; GI50 (MDA-MB-231/ATCC): 3.7 µM; inhibition at 10 µM (MDA-MB-231/ATCC; MDA-MB-231, read-out: percent growth inhibition): 89.4%; GI50 [5]: 10.5 µM; GI50 (CNS cancer cell lines): 9.73 µM; GI50 (Leukaemia cell lines): 2.73 µM; GI50 (Breast cancer cell lines): 7.03 µM; GI50 (Melanoma cell lines): 10.5 µM; GI50 (OVCAR-5): 18.5 µM; inhibition at 10 µM (OVCAR-5): 29.2%; IC50 (Human VEGFR-2): 0.89 ± 0.009 µM; GI50 (HCT-116): 1.91 µM; inhibition at 10 µM (HCT-116): 179%; GI50 (HL-60(TB)): 3.99 µM; inhibition at 10 µM (HL-60(TB)): 52%; GI50 (IGROV1): 12.9 µM; inhibition at 10 µM (IGROV1): 39%; GI50 (NSCLC cell lines): 13.4 µM; GI50 (Colon cancer cell lines): 7.86 µM; GI50 (UO-31): 6.78 µM; inhibition at 10 µM (UO-31; UO-31, read-out: percent growth inhibition): 50.2%; GI50 (SNB-19): 12.4 µM; inhibition at 10 µM (SNB-19): 31.4%; GI50 (OVCAR-4): 6.18 µM; inhibition at 10 µM (OVCAR-4): 56.1%; GI50 (RXF 393): 10.9 µM; inhibition at 10 µM (RXF 393): 32.9%; GI50 (HS 578 T): 15.4 µM; inhibition at 10 µM (HS 578 T): 47%

**Q.** With CC(=O)Nc1ccc(/C=C/C(=O)c2cccc(NCc3ccc(NC(C)=O)cc3)c2)cc1 [Compound 5g, (E)-N-(4–(3-(3-((4-acetamidobenzyl)amino)phenyl)-3-oxoprop-1-en-1-yl)phenyl) acetamide] as the molecule, how does the GI50 [1] read?
**A.** 9.52 µM

**Q.** And the “Full panel Mean GI %” value [1]?
**A.** 87.48%

**Q.** And the GI50 (Renal cancer cell lines)?
**A.** 10.7 µM

**Q.** What about the GI50 (UACC-257) of the same molecule?
**A.** 12.5 µM

**Q.** And the inhibition at 10 µM (UACC-257)?
**A.** 51.1%

**Q.** And the GI50 (SF-295)?
**A.** 14 µM

**Q.** And the inhibition at 10 µM (SF-295)?
**A.** 51.8%

**Q.** What about the GI50 (SF-539) of the same molecule?
**A.** 12.2 µM

**Q.** And the inhibition at 10 µM (SF-539)?
**A.** 167%

**Q.** What about the GI50 [2] of the same molecule?
**A.** 11.7 µM

**Q.** What about the GI50 (OVCAR-3) of the same molecule?
**A.** 6.09 µM

**Q.** What about the inhibition at 10 µM (OVCAR-3) of the same molecule?
**A.** 118%

**Q.** And the GI50 (COLO 205)?
**A.** 16 µM

**Q.** And the inhibition at 10 µM (COLO 205)?
**A.** 30.7%

**Q.** What about the GI50 (MOLT-4) of the same molecule?
**A.** 3.21 µM

**Q.** What about the inhibition at 10 µM (MOLT-4) of the same molecule?
**A.** 116%

**Q.** What about the Safety index [3] of the same molecule?
**A.** >1

**Q.** And the GI50 at 48 h [4]?
**A.** > 100 µM

**Q.** And the GI50 (HCT-15)?
**A.** 3.13 µM

**Q.** What about the inhibition at 10 µM (HCT-15) of the same molecule?
**A.** 144%

**Q.** And the GI50 (MDA-MB-231/ATCC)?
**A.** 4.56 µM

**Q.** What about the GI50 [5] of the same molecule?
**A.** 11.8 µM

**Q.** And the GI50 (CNS cancer cell lines)?
**A.** 9.95 µM

**Q.** And the GI50 (Leukaemia cell lines)?
**A.** 3.87 µM

**Q.** And the GI50 (Breast cancer cell lines)?
**A.** 7.7 µM

**Q.** And the GI50 (Melanoma cell lines)?
**A.** 9.64 µM

**Q.** What about the GI50 (OVCAR-5) of the same molecule?
**A.** 12.3 µM

**Q.** And the inhibition at 10 µM (OVCAR-5)?
**A.** 45.2%

**Q.** And the IC50 (Human VEGFR-2)?
**A.** 0.47 ± 0.013 µM

**Q.** And the GI50 (HCT-116)?
**A.** 1.95 µM

**Q.** And the inhibition at 10 µM (HCT-116)?
**A.** 190%

**Q.** And the GI50 (HL-60(TB))?
**A.** 7.08 µM

**Q.** What about the inhibition at 10 µM (HL-60(TB)) of the same molecule?
**A.** 100%

**Q.** What about the GI50 (IGROV1) of the same molecule?
**A.** 5.59 µM

**Q.** What about the inhibition at 10 µM (IGROV1) of the same molecule?
**A.** 56.3%

**Q.** What about the GI50 (NSCLC cell lines) of the same molecule?
**A.** 12.2 µM

**Q.** What about the GI50 (Colon cancer cell lines) of the same molecule?
**A.** 8.13 µM

**Q.** And the GI50 (UO-31)?
**A.** 10.8 µM

**Q.** And the GI50 (SNB-19)?
**A.** 7 µM

**Q.** And the inhibition at 10 µM (SNB-19)?
**A.** 95.4%

**Q.** What about the GI50 (OVCAR-4) of the same molecule?
**A.** 14 µM

**Q.** And the inhibition at 10 µM (OVCAR-4)?
**A.** 38.7%

**Q.** What about the GI50 (RXF 393) of the same molecule?
**A.** 11.3 µM

**Q.** And the inhibition at 10 µM (RXF 393)?
**A.** 158%

**Q.** What about the GI50 (HS 578 T) of the same molecule?
**A.** 10.6 µM

**Q.** What about the inhibition at 10 µM (HS 578 T) of the same molecule?
**A.** 32%
